A word on the IC50: it is the concentration that inhibits the measured activity by half.

The source of these data is patent US7132418B2, “Peptidyl heterocyclic ketones useful as tryptase inhibitors” (Ortho-McNeil Pharmaceutical, Inc., priority 1999, dated 2006).

One assay has as its target T1, human Lung Tryptase.
T1 construct: 1.0 nM human Lung Tryptase
As to the kind of experiment: Tryptase IC50 method, chromogenic substrate hydrolysis. Type of assay: biochemical. The note with it: 1.0 nM human lung tryptase, 500 μM N-p-Tosyl-GLY-PRO-LYS-pNA, 37° C. The method, then: (§1) The enzyme reaction is started by the addition of enzyme ([E]: 1.0 nM human Lung Tryptase; Cortex Biochem CP3033). Data is collected over a period of 30 min. and the initial rate of substrate hydrolysis (Vo (mOD/min)) is calculated. Inhibition is calculated by comparing to wells containing no inhibitor (vehicle) and IC50s are determined using a four parameter fit logistics model. • Trypsin IC50 Method: Inhibition of trypsin-catalyzed hydrolysis rates were measured using the same method as the tryptase procedure. Bovine type 1 trypsin (Sigma) and Spectrozyme® TRY (Cbo-Gly-D-Ala-Arg-pNA.AcOH, American Diagnostics) replaced their tryptase equivalents at concentrations of 3.2 U/ml trypsin and 1.0 mM Spectrozyme® TRY.

The target in another assay is T2, Bovine type 1 trypsin (Bos taurus, UniProt P00760).
T2 construct: purchased Sigma
T2 sequence (P00760 24-246): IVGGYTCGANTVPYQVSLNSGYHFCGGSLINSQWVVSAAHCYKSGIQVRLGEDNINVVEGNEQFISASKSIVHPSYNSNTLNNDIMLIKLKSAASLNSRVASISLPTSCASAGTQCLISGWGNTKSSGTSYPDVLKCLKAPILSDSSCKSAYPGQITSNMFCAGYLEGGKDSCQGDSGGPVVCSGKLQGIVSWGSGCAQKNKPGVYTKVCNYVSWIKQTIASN
As to the kind of experiment: Trypsin IC50 method, chromogenic substrate hydrolysis. It counts as biochemical. The note with it: 3.2 U/ml bovine type 1 trypsin, 1.0 mM Spectrozyme TRY. On the procedure: as §1

In the next assay the test system is trypsin. As to conditions: pancreatic agents, comparison values; cited from earlier work.
For assay [1] the following is noted: compared with placebo, 16 mild asthmatics, nebulized dry powder formulation; cited from earlier work.

For the molecule `CC(=O)N[C@H]1CCC[C@H]1C(=O)NC(CCCNC(=N)N)C(=O)c1nc2ccccc2s1` (stereo partly drawn) [Compound 3, cis-2-Acetylamino-N-[(1S)-4-[(aminoiminomethyl)amino]-1-(2-benzothiazolylcarbonyl)butyl]-1-cyclopentanecarboxamide], the values for the IC50 against human Lung Tryptase and at Bovine type 1 trypsin were 1700 ± 700 nM and 360 ± 30 nM, respectively.

`N=C(N)NCCCC(NC(=O)CCC(N)=O)C(=O)c1nc2ccccc2s1` (stereo not drawn) [Compound 23, N-[4-[(Aminoiminomethyl)amino]-1-(2-benzothiazolylcarbonyl)butyl]butanediamide]: the half-inhibitory concentration (IC50) worked out at 260 ± 10 nM against human Lung Tryptase and 93 ± 68 nM against Bovine type 1 trypsin.

In the case of `CC(=O)NC1CCC(C(=O)NC(CCCNC(=N)N)C(=O)c2nc3ccccc3s2)CC1` (stereo not drawn) [Compound 17, 4-Acetamido-N-[4-[(aminoiminomethyl)amino]-1-(2-benzothiazolylcarbonyl)butyl]-cyclohexanecarboxamide], the half-maximal inhibitory concentration (IC50) against human Lung Tryptase amounted to 9400 ± 5700 nM; on Bovine type 1 trypsin it was 2400 nM.

On to `CC(=O)N[C@@H](CC1CCCCC1)C(=O)NC(CCCNC(=N)N)C(=O)c1nc2ccccc2s1` (stereo partly drawn) [Compound 32], for which the figures for the half-maximal inhibitory concentration (IC50) at human Lung Tryptase and on Bovine type 1 trypsin were 440 nM and 17 nM, respectively.

For `N=C(N)NCCC[C@H](NC(=O)CN1CCCC[C@H](NS(=O)(=O)Cc2ccccc2)C1=O)C(=O)c1nc2ccccc2s1` [Compound 28, (3S)N-[(1S)-4-[(Aminoiminomethyl)amino]-1-(2-benzothiazolylcarbonyl)butyl]hexahydro-2-oxo-3-[[(phenylmethyl)sulfonyl]amino]-1H-azepine-1-acetamide], the IC50 is 100 ± 40 nM on human Lung Tryptase and 42 ± 1 nM against Bovine type 1 trypsin.

`COC(=O)N1CCC[C@H]1C(=O)NC(CCCNC(=N)N)C(=O)c1nc2ccccc2s1` (stereo partly drawn) [Compound 11, (2S)-N-[4-[(Aminoiminomethyl)amino]-1-(2-benzothiazolylcarbonyl)butyl]-1,2-pyrrolidinedicarboxamide, 1-methyl ester]: the values for the IC50 on human Lung Tryptase and against Bovine type 1 trypsin were 2400 ± 900 nM and 39 nM, respectively.

In the case of `CN[C@H](Cc1ccccc1)C(=O)N1CCC[C@H]1C(=O)N[C@@H](Cc1cccc(C(=N)N)c1)C(=O)c1nc2ccccc2s1` [Compound 31, (S)—N-methyl-D-phenylalanyl-N-[1-[[3-(aminoiminomethyl)phenyl]methyl]-2-(2-benzothiazolyl)-2-oxoethyl]-L-prolinamide], the concentration for half-maximal inhibition (IC50) at human Lung Tryptase stood at 290 ± 30 nM; at Bovine type 1 trypsin, 240 nM.

Take `CCCC(CCC)C(=O)N[C@@H](CC(=O)OC)C(=O)N1CCC[C@H]1C(=O)N[C@@H](CCCNC(=N)N)C(=O)c1nc2ccccc2s1` [Compound 26, N-(1-Oxo-2-propylpentyl)-L-α-aspartyl-N-[4-[(aminoiminomethyl)amino]-1-(2-benzothiazolylcarbonyl)butyl]-L-prolinamide, methyl ester]: the 50% inhibitory concentration (IC50) was 110 ± 10 nM against human Lung Tryptase and 48 ± 1 nM against Bovine type 1 trypsin.

With `CN[C@H](Cc1ccccc1)C(=O)N1CCC[C@H]1C(=O)N[C@@H](CC1CCCN(C(=N)N)C1)C(=O)c1nc2ccccc2s1` (stereo partly drawn) [Compound 30, N-Methyl-D-phenylalanyl-N-[(2S)-[1-(aminoiminomethyl)-3-piperidinyl]-1-(2-benzothiazolylcarbonyl)ethyl]-L-prolinamide], the half-maximal inhibitory concentration (IC50) at human Lung Tryptase amounted to 36 ± 4 nM; against Bovine type 1 trypsin it was 110 ± 70 nM.

Regarding `CC(=O)N[C@H](C(=O)NC(CCCNC(=N)N)C(=O)c1nc2ccccc2s1)C(C)C` (stereo partly drawn) [Compound 33], the IC50 on human Lung Tryptase was found to be 180 ± 10 nM; on Bovine type 1 trypsin, 19 nM.

`Cc1ccc(S(=O)(=O)N2CCC[C@H]2C(=O)NC(CCCNC(=N)N)C(=O)c2nc3ccccc3s2)cc1` (stereo partly drawn) [Compound 7, (2S)-N-[4-[(Aminoiminomethyl)amino]-1-(2-benzothiazolylcarbonyl)butyl]-1-[(4-methylphenyl)sulfonyl]-2-pyrrolidinecarboxamide]: the IC50 is 1400 ± 800 nM at human Lung Tryptase and 230 ± 110 nM against Bovine type 1 trypsin.

As to `N=C(N)NCCCC(NC(=O)[C@@H]1CCCN1C(=O)c1ccccc1)C(=O)c1nc2ccccc2s1` (stereo partly drawn) [Compound 34], the IC50 against human Lung Tryptase amounted to 340 nM; at Bovine type 1 trypsin, 46 nM.

Turning to `CN(C)C(=O)COC(=O)Cc1ccc(OC(=O)c2ccc(NC(=N)N)cc2)cc1` [camostat mesilate], the 50% inhibitory concentration (IC50) with trypsin was 10 nM.

Take `CC(=O)N1C[C@H]2C[C@H]2C1C(=O)NC(CCCNC(=N)N)C(=O)c1nc2ccccc2s1` (stereo partly drawn) [Compound 8, (2S)-trans-3-Acetyl-N-[4-[(aminoiminomethyl)amino]-1-(2-benzothiazolylcarbonyl)butyl]-3-azabicyclo(3.1.0)hexane-2-carboxamide]: the half-inhibitory concentration (IC50) was 110 ± 40 nM against human Lung Tryptase and 190 nM against Bovine type 1 trypsin.

For `N=C(N)c1ccc2cc(OC(=O)c3ccc(N=C(N)N)cc3)ccc2c1` [nafamostat], in the assay on trypsin, the IC50 was 13 nM.

As to `CS(=O)(=O)N1CCC[C@H]1C(=O)NC(CCCNC(=N)N)C(=O)c1nc2ccccc2s1` (stereo partly drawn) [Compound 6, (2S)-N-[4-[(aminoiminomethyl)amino]-1-(2-benzothiazolylcarbonyl)butyl]-1-methanesulfonyl-2-pyrrolidinecarboxamide], the 50% inhibitory concentration (IC50) was found to be 140 ± 80 nM at human Lung Tryptase and 110 nM on Bovine type 1 trypsin.

Take `NC(=O)[C@@H]1CCCN1C(=O)[C@H](CCCN=C(N)N)NC(=O)c1ccc2ccccc2c1O` [APC-366]: in assay [1], the “improvement for the late airway response” value is on record as 33% and the “mean maximum decrease of forced expiratory volume in one second for late airway hyperresponsiveness” value is listed as 21%.

On to `N=C(N)NCCC[C@H](NC(=O)[C@@H]1CCCN1C(=O)[C@@H](CC1CCCCC1)NCC(=O)O)C(=O)c1nc2ccccc2s1` [Compound 27, N-(Carboxymethyl)-3-cyclohexyl-D-alanyl-N-[(1S)-4-[(aminoiminomethyl)amino]-1-(2-benzothiazolylcarbonyl)butyl]-L-prolinamide], for which the results for the IC50 on human Lung Tryptase and against Bovine type 1 trypsin were 34 ± 3 nM and 36 ± 1 nM, respectively.

For `CC(=O)N[C@H]1CCCN(CC(=O)NC(CCCNC(=N)N)C(=O)c2nc3ccccc3s2)C1=O` (stereo partly drawn) [Compound 19, (S)-3-Acetamido-N-[4-[(aminoiminomethyl)amino]-1-(2-benzothiazolylcarbonyl)butyl]-2oxo-1-piperidineacetamide], the half-inhibitory concentration (IC50) was found to be 12000 ± 5000 nM on human Lung Tryptase and 320 nM at Bovine type 1 trypsin.

Turning to `N=C(N)NCCC[C@H](NC(=O)[C@@H]1CCCN1C(=O)[C@H](CO)NS(=O)(=O)c1cccc2ccccc12)C(=O)c1nc2ccccc2s1` [Compound 29], the IC50 at human Lung Tryptase worked out at 14 ± 5 nM; against Bovine type 1 trypsin, 58 ± 12 nM.

On to `N=C(N)NCCCC(NC(=O)C1CCCCC1C(N)=O)C(=O)c1nc2ccccc2s1` (stereo not drawn) [Compound 16, N-[4-[(Aminoiminomethyl)amino]-1-(2-benzothiazolylcarbonyl)butyl]-1,2-cyclohexanedicarboxamide], for which the IC50 came to 180 ± 70 nM against human Lung Tryptase and 160 nM at Bovine type 1 trypsin.

`CS(=O)(=O)N1C[C@H](O)C[C@H]1C(=O)NC(CCCNC(=N)N)C(=O)c1nc2ccccc2s1` (stereo partly drawn) [Compound 5, (2S,4R)-N-[4-[(aminoiminomethyl)amino]-1-(2-benzothiazolylcarbonyl)butyl]-4-hydroxy-1-methanesulfonyl-2-pyrrolidinecarboxamide]: the IC50 was determined as 100 ± 10 nM against human Lung Tryptase and 210 nM on Bovine type 1 trypsin.
